Experimental findings from ChEMBL document CHEMBL5370654, “Discovery of 3-Phenyl Indazole-Based Novel Chemokine-like Receptor 1 Antagonists for the Treatment of Psoriasis” (J Med Chem, 2023) are described below.

Each structure is given as a SMILES string. The source made the active and inactive calls. The rule behind the calls is not given here.

The target in data set [1] is T1, Chemerin-like receptor 1 (Homo sapiens, UniProt Q99788).
T1 sequence (Q99788 whole entry): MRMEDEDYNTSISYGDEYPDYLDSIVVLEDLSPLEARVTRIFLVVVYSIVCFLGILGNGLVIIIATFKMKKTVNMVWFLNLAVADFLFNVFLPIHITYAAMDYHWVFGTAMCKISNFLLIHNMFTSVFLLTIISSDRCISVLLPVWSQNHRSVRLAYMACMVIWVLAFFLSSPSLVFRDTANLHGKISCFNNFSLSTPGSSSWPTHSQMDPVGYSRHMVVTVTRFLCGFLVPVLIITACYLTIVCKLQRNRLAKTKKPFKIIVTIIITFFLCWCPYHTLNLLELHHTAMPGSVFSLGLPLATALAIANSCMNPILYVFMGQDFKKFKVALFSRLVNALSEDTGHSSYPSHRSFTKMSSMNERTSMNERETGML
Kind of data set: Antagonist activity at human CMKLR1 expressed in CHO-K1 cells co-expressing Galpha-16 assessed as change in intracellular calcium concentration incubated for 30 mins in presence of chemerin-9 by FLIPR calcium 5 assay. It is filed as functional, cell-based.

The target in data set [2] is T1, Chemerin-like receptor 1. Kind of data set: Antagonist activity at human CMKLR1.
A short description of data set [3]: AUClast in C57BL6 mouse at 10 mg/kg, po measured upto 24 hrs by LC-MS/MS analysis. It is filed as ADME, organism-based. The arrangement: dose 10 mg/kg, time < 24 hrs, route po. Particulars: in vivo.
Data set [4] can be described thus: Tmax in C57BL6 mouse at 10 mg/kg, po measured upto 24 hrs by LC-MS/MS analysis. It is filed as ADME, organism-based. To be noted: in vivo.
A short description of data set [5]: Cmax in C57BL6 mouse at 10 mg/kg, po measured upto 24 hrs by LC-MS/MS analysis. To be noted: in vivo. It is filed as ADME, organism-based. More on the design: dose 10 mg/kg, time < 24 hrs, route po.
A short description of data set [6]: Toxicity in imiquimod-induced BALB/c mouse psoriasis model assessed as change in body weight at 0.4 mg/kg, po qd administered for 7 days. It is filed as organism-based. To be noted: in vivo, 168 h, time 7 day.
A further data set has as its system Mus musculus. Briefly: Antiinflammatory activity against imiquimod-induced BALB/c mouse psoriasis model assessed as reduction in epidermal proliferation in mouse back skin at 0.4 mg/kg, po qd administered for 7 days by hematoxylin and eosin staining based analysis. The class given is functional, organism-based. To be noted: time 7.0 day.
The nature of data set [7]: AUClast in C57BL6 mouse at 30 mg/kg, po measured upto 24 hrs by LC-MS/MS analysis. The class given is ADME, organism-based. The arrangement: dose 30 mg/kg, time < 24 hrs, route po. To be noted: in vivo.
Data set [8] is described as follows: Cmax in C57BL6 mouse at 30 mg/kg, po measured upto 24 hrs by LC-MS/MS analysis. It is filed as ADME, organism-based. The arrangement: dose 30 mg/kg, time < 24 hrs, route po. To be noted: in vivo.
A short description of data set [9]: Toxicity in imiquimod-induced BALB/c mouse psoriasis model assessed as change in body weight at 30 mg/kg, po qd administered for 7 days. The class given is organism-based. To be noted: in vivo, 168 h, time 7 day.
Data set [10] in a line: Tmax in C57BL6 mouse at 30 mg/kg, po measured upto 24 hrs by LC-MS/MS analysis. It is filed as ADME, organism-based. To be noted: in vivo.

As a reminder, the IC50 is the concentration at which inhibition is half-maximal. With `C[C@@H](CC(=O)O)c1ccc(OCc2ccc3c(-c4ccc(O)c([N+](=O)[O-])c4)nn(C4CCCC4)c3c2)cc1`, on Chemerin-like receptor 1 [1], the IC50 is 1700 nM.
On the same count and under the same terms, under `C[C@@H](CC(=O)O)c1ccc(OCc2ccc3c(-c4cc(Cl)c(O)cc4Cl)nn(C4CCCC4)c3c2)cc1` stands 525 nM; under `CC(CC(=O)O)c1ccc(OCc2ccc3c(-c4cccc(O)c4)nn(C4CCCC4)c3c2)cc1` (racemic), 2570 nM.
The term EC50 denotes the concentration that produces a half-maximal response. In turn, `CC[C@@H](O)/C=C/C=C\C[C@@H](O)/C=C/C=C/C=C\[C@@H](O)CCCC(=O)O` [RESOLVIN E1] had an EC50 at Chemerin-like receptor 1 [2] of 1 nM. In other words, the single-digit nanomolar range.
Take `CC(C)n1nc(-c2ccccc2)c2ccc(COc3ccc([C@@H](C)CC(=O)O)cc3)cc21`: inhibition against Chemerin-like receptor 1 [2] was half-maximal at 5750 nM (IC50).
What is called AUC(0-t) is the area under the concentration-time curve up to a stated or last time point. Lower therefore signals less exposure. In general, Tmax refers to the time from dosing to the highest level. As a reminder, the Cmax is the maximum level reached in the sampled fluid or tissue. Consider `CC(CC(=O)O)c1ccc(OCc2ccc3c(-c4cc(Cl)c(CO)c(Cl)c4)nn(C4CCCC4)c3c2)cc1` (racemic), for which, in [3], the AUC(0-t) at 24 h is 11700 ng·h/mL. Further, in [4], the Tmax turned out to be 30 min. In data set [5], the Cmax came out at 2600 ng/mL.
Take `CN(Cc1cnc2nc(N)nc(N)c2n1)c1ccc(C(=O)N[C@@H](CCC(=O)O)C(=O)O)cc1` [METHOTREXATE]: the Activity entry in [6] is recorded as “Non-Toxic”. In addition, in the data set on Mus musculus, the outcome was Active.
For `C[C@@H](CC(=O)O)c1ccc(OCc2ccc3c(-c4ccc(O)c(O)c4)nn(C4CCCC4)c3c2)cc1`, the IC50 on Chemerin-like receptor 1 [1] was 2090 nM.
Same read-out and setting: under `Cc1ccc(-c2nn(C3CCCC3)c3cc(COc4ccc(C(C)CC(=O)O)cc4)ccc23)cc1` (racemic) stands 2340 nM.
In the case of `C[C@@H](CC(=O)O)c1ccc(OCc2ccc3c(-c4cc(Cl)c(O)c(Cl)c4)nn(C4CCCC4)c3c2)cc1`, at Chemerin-like receptor 1 [1], the IC50 was 141 nM.
Same read-out and setting: the figure for `CC(CC(=O)O)c1ccc(OCc2ccc3c(-c4ccc(Cl)cc4)nn(C4CCCC4)c3c2)cc1` (racemic) is 2290 nM; for `C[C@@H](CC(=O)O)c1ccc(OCc2ccc3c(-c4cc(F)c(O)cc4F)nn(C4CCCC4)c3c2)cc1` it is 513 nM; for `C[C@@H](CC(=O)O)c1ccc(OCc2ccc3c(-c4ccc(O)cc4Cl)nn(C4CCCC4)c3c2)cc1` it is 676 nM.
On the same count and under the same terms, under `COc1ccc(-c2nn(C3CCCC3)c3cc(COc4ccc(C(C)CC(=O)O)cc4)ccc23)cc1` (racemic) stands 1100 nM.
With `C[C@@H](CC(=O)O)c1ccc(OCc2cc(F)c3c(-c4cc(Cl)c(CO)c(Cl)c4)nn(C4CCCC4)c3c2)cc1`, the AUC(0-t) at 24 h in data set [7] is 64100 ng·h/mL. In data set [8], this molecule showed a Cmax of 7900 ng/mL. Besides, in data set [9], the Activity result was “Non-Toxic”. In addition, the Tmax in data set [10] came to 120 min.
In the case of `C[C@@H](CC(=O)O)c1ccc(OCc2cc(F)c3c(-c4cc(Cl)c(O)c(Cl)c4)nn(C4CCCC4)c3c2)cc1`, at Chemerin-like receptor 1 [1], the IC50 was 19.1 nM.
Turning to `CC(CC(=O)O)c1ccc(OCc2ccc3c(-c4cc(Cl)c(O)c(Cl)c4)nn(C4CCCC4)c3c2)cc1` (racemic), the AUC(0-t) at 24 h in [3] turned out to be 823 ng·h/mL. Besides, the Tmax in [4] is 30 min. Moreover, the IC50 at Chemerin-like receptor 1 [1] was 309 nM. This molecule had a Cmax in data set [5] of 225 ng/mL.
Consider `C[C@@H](CC(=O)O)c1ccc(OCc2ccc3c(-c4cc(F)c(CO)c(F)c4)nn(C4CCCC4)c3c2)cc1`, for which, on Chemerin-like receptor 1 [1], the IC50 is 53.7 nM.
